Patent US20120122181A1, “METHOD FOR DETERMINING ANTAGONIST ACTIVITY TO A CYTOKININ RECEPTOR” (SUMITOMO CHEMICAL COMPANY, LIMITED, priority 2001, published 2012)

Legend:
[1] = molecular target: T1, cytokinin receptor CRE1 (transformed cell TM182-CRE1) (Arabidopsis thaliana, UniProt Q9C5U0, S567G/T1018A); conditions: DOLU+Gul agar, concentrations 1 nM to 100 μM, 30° C., 30 hours
Protocol: (§1) After incubation, the growth state of the transformed cells was observed and photographed by a digital camera.
(§2) The lowest supply concentrations of trans-zeatin and cis-zeatin in which the respective transformed cells could be grown were shown in Table 1.

[2] = molecular target: T2, cytokinin receptor AHK2 Δ (transformed cell TM182-AHK2 Δ) (Arabidopsis thaliana, UniProt Q9C5U2); conditions: DOLU+Gul agar, concentrations 1 nM to 100 μM, 30° C., 30 hours
T2 sequence (Q9C5U2 196-1176): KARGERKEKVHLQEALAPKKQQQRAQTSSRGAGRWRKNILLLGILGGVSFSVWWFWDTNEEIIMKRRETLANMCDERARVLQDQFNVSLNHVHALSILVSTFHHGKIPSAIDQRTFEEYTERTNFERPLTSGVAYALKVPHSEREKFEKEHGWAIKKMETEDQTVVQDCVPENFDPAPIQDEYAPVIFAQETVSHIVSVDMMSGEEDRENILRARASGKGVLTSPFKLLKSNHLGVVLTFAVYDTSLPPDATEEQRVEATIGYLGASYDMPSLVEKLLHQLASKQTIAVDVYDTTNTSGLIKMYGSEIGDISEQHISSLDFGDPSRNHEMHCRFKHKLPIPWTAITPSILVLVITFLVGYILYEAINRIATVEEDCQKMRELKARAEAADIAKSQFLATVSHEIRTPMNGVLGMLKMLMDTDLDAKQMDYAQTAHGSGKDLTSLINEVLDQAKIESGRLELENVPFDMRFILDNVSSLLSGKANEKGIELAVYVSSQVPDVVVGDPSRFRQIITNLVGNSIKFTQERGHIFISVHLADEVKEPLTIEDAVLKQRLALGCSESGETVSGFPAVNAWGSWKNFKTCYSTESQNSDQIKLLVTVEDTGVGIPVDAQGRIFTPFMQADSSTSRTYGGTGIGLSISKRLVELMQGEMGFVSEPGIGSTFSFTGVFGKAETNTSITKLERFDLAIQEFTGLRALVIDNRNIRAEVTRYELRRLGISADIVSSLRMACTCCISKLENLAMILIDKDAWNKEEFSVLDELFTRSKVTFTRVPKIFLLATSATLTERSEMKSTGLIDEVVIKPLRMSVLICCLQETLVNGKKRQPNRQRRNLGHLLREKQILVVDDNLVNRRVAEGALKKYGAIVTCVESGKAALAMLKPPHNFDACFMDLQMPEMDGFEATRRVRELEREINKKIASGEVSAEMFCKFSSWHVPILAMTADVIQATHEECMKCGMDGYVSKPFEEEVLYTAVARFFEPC
Protocol: as §1, §2

[3] = molecular target: T3, cytokinin receptor AHK2 (transformed cell TM182-AHK2) (Arabidopsis thaliana, UniProt Q9C5U2); conditions: DOLU+Gul agar, concentrations 1 nM to 100 μM, 30° C., 30 hours
T3 sequence (Q9C5U2 1-1176): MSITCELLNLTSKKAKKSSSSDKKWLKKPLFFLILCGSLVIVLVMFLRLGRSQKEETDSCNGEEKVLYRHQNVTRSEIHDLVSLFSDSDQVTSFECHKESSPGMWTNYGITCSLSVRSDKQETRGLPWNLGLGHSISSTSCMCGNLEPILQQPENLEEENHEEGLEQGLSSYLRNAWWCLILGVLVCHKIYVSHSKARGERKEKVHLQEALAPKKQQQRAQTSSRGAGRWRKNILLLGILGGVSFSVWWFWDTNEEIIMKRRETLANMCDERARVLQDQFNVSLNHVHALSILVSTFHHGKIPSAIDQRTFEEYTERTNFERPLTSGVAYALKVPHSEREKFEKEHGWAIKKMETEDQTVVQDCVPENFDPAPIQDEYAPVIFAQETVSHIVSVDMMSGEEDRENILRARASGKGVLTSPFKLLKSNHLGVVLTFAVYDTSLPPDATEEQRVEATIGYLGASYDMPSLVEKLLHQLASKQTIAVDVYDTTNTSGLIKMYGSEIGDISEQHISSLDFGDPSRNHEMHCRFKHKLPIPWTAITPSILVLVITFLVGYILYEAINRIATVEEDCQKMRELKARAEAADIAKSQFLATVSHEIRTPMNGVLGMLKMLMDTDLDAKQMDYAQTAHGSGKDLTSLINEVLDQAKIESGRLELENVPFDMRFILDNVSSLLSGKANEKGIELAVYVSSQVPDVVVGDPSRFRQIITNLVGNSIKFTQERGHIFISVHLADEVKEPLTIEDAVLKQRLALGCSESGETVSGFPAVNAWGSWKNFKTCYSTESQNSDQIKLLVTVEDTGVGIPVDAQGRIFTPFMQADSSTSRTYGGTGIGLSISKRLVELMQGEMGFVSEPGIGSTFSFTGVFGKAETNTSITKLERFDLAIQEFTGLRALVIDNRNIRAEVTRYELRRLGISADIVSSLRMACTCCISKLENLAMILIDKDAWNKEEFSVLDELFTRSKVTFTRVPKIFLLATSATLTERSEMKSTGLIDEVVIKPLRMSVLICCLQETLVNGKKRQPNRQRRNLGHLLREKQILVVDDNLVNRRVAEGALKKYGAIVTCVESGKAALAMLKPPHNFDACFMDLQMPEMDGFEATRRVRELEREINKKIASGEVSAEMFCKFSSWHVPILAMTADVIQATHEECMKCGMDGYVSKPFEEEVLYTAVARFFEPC
Protocol: as §1, §2

[4] = molecular target: T3, cytokinin receptor AHK2 (transformed cell TM182-AHK2); conditions: DOLU+Gul agar containing 10 μM trans-zeatin, 30° C., 30 hours; compared with media containing no trans-zeatin
Protocol: (§3) Transformation of TM182 (S1n1 Δ), S1n1 genetically detected strain, [Maeda T et al. Nature: 369 242-245 (1994)] was carried out using the obtained expression plasmid p415CYC-CRE1 (the example 5), p415CYC-AHK2 (the example 11), p415CYC-AHK2Δ (the example 11) and p415CYC-AHK3 (the example 8). The transformation was carried out by employing Polyethylene glycol/lithium acetate (PEG/LiAc)-mediated transformation method according to the description of VII. Library Transformation & Screening Protocols disclosed in […] Two-Hybrid System 3 User Manual p.
as §1

[5] = molecular target: T1, cytokinin receptor CRE1 (transformed cell TM182-CRE1); conditions: DOLU+Gul agar containing 10 μM trans-zeatin, 30° C., 30 hours; compared with media containing no trans-zeatin
Protocol: as §3, §1

[6] = molecular target: T4, cytokinin receptor AHK3 (transformed cell TM182-AHK3) (Arabidopsis thaliana, UniProt Q9C5U1); conditions: DOLU+Gul agar containing 10 μM trans-zeatin, 30° C., 30 hours; compared with media containing no trans-zeatin
T4 sequence (Q9C5U1 1-1036): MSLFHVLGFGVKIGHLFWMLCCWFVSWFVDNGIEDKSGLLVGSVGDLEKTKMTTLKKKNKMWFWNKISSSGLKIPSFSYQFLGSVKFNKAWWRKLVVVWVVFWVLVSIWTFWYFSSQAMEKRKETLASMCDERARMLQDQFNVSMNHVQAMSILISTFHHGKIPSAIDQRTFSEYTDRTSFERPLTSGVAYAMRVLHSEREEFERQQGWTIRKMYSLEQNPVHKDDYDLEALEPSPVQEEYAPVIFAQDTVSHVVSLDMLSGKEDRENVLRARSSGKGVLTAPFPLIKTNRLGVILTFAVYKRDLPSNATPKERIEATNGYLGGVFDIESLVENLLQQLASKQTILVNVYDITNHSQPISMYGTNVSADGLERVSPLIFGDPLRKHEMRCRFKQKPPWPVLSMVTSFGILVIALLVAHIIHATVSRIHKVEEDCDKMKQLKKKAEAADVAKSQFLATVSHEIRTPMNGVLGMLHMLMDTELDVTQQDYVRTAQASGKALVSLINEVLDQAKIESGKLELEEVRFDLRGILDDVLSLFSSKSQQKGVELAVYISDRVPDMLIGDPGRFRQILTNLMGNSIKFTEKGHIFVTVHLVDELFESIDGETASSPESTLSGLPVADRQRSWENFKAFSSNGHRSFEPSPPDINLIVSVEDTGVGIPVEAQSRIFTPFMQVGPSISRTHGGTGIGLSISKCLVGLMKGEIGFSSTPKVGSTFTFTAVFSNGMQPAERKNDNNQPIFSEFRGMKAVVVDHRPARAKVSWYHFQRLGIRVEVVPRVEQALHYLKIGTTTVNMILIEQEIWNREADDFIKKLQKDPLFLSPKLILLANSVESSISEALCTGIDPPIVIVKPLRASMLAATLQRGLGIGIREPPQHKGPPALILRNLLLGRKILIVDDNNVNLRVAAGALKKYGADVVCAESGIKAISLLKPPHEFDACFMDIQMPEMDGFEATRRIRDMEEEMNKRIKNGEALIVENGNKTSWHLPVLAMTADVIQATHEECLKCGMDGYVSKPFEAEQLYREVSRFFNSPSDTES
Protocol: as §3, §1

[7] = molecular target: T2, cytokinin receptor AHK2 Δ (transformed cell TM182-AHK2 Δ); conditions: DOLU+Gul agar containing 10 μM trans-zeatin, 30° C., 30 hours; compared with media containing no trans-zeatin
Protocol: as §3, §1

[8] = molecular target: T2, cytokinin receptor AHK2 Δ (transformed cell TM182-AHK2 Δ); assay: Searching agonist-activity to cytokinin receptor (Part 1), optical density of liquid culture; assay type: cell-based; design: one added initiator methionine (ATG added 5' of codon 196) (N); expressed in transfected cells; host or cells: Saccharomyces cerevisiae TM182 (sln1 deletion), plasmid p415CYC-AHK2 Δ; conditions: examinee substance 100 μM final concentration, DOLU+Gul medium, 30° C., 24 hours; DMSO blank 0
Protocol: The transformed cells TM182-CRE1, TM182-AHK2, TM182-AHK2 Δ and TM182-AHK3 produced in the example 12 were inoculated in 200 ml of DOLU+Gal culture media and pre-cultured at 30° C. for 36 hours. The pre-cultured solutions were diluted with DOLU+Gul media as to become 0.100 as the optical density (0D600) and further the resultants were diluted with DOLU+Gul media at a dilution rate of 1/200 to obtain diluted pre-cultured solutions.
An assay plate was prepared by filling respective wells of a 96-well plate with 20 μl of solutions which were prepared by diluting DMSO solution (10 mM) of each examinee substance with DOLU+Gul medium at a dilution rate of 1/100, said solutions containing each examinee substance to be 100 μM at the final concentration. […]
The diluted pre-cultured solutions were added in 200 μl each into the respective wells of both assay plates and cultured at 30° C. for 24 hours and then the optical density (0D620) of each well was measured by a plate reader. The agonist-activity of the examinee substances to the cytokinin receptor was detected by comparing the optical density measured in the testing sections to which the examinee substances were added with the optical density measured in the blank sections.

T1 sequence (Q9C5U0 24-1080 S567G/T1018A): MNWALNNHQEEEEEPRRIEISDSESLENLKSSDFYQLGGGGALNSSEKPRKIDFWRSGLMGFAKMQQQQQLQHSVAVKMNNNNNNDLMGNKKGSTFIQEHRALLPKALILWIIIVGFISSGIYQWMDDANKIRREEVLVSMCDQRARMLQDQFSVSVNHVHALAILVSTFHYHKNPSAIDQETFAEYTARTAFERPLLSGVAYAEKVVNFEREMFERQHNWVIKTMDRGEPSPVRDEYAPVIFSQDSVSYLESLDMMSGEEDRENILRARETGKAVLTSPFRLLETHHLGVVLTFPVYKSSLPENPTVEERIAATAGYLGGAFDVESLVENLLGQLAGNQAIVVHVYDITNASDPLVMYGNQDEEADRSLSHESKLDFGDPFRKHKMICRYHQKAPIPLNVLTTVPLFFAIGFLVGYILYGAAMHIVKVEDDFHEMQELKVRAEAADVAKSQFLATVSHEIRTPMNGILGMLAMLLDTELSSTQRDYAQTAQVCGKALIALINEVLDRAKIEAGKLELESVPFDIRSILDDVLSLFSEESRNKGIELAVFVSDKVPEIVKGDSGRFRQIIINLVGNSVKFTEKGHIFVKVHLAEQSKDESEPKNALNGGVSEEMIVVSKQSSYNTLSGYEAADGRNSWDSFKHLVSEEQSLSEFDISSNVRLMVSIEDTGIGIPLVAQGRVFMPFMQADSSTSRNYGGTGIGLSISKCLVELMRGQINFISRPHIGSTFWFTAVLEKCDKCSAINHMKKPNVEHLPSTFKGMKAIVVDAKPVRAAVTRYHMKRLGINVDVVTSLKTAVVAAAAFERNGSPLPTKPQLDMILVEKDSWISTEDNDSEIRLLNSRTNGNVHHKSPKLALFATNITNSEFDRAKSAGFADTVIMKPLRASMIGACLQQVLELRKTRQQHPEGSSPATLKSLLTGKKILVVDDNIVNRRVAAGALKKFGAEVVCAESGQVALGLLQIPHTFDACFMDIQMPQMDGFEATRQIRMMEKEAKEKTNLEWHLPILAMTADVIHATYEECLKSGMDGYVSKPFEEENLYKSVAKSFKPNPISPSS

## C/C(=C/CNc1ncnc2nc[nH]c12)CO [cis-zeatin]
[1]
  lowest supply concentration in which the transformed cells could be grown, TM182-CRE1: no growth
[2]
  lowest supply concentration in which the transformed cells could be grown, TM182-AHK2 A: 1 µM

## C/C(=C\CNc1ncnc2nc[nH]c12)CO [trans-zeatin]
[3]
  lowest supply concentration in which the transformed cells could be grown, TM182-AHK2: 1 µM
[4]
  growth state of transformed cells TM182-AHK2: high growth
[5]
  growth state of transformed cells TM182-CRE1: high growth
[6]
  growth state of transformed cells TM182-AHK3: high growth
[7]
  growth state of transformed cells TM182-AHK2 Δ: high growth

## CC1=CC(=O)CC(C)(C)[C@@]1(O)/C=C/C(C)=C\C(=O)O [Compound A, Abscisic acid]
[8]
  optical density (OD620) of the culture solution, TM182-AHK2 Δ: 0
